{"source": "PubChem BioAssay AID1963964", "about": "(Molecular Pharmacology Branch, DTP, NCI, 2024);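 note: spheroids exposed to compounds for seven days before readout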", "test_system": "997726-040-R-J2-PDC tumor spheroids, viability", "assay": "Anticancer human tumor 997726-040-R-J2-PDC patient-derived squamous cell lung carcinoma cell line growth inhibition [PI3K]", "conditions": "spheroids with HUVEC and MSC; for IC50: curve of first compound; for viability, T/C: stronger effect = lower value", "outline": "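Tumor cells grown as multi-cell spheroids with HUVEC endothelial cells and MSC fibroblast-like stroma were treated with targeted agents combined with inavolisib, alpelisib, duvelisib or copanlisib. Doses fell in half-log steps from near clinical Cmax, else from 10 microM. Viability was measured.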"}
{"smiles": "Cn1cnc2c(F)c(Nc3ccc(Br)cc3Cl)c(C(=O)NOCCO)cc21", "note": "+ CC(Nc1ncnc2nc[nH]c12)c1cc2cccc(Cl)c2c(=O)n1-c1ccccc1", "values": [{"measurement": "IC50", "setting": "second compound 0.0316 µM", "result": 553, "unit": "nM"}, {"measurement": "IC50", "setting": "second compound 0.1 µM", "result": 467, "unit": "nM"}, {"measurement": "IC50", "setting": "second compound 0.316 µM", "result": 319, "unit": "nM"}, {"measurement": "IC50", "setting": "second compound 1 µM", "result": 574, "unit": "nM"}, {"measurement": "IC50", "setting": "second compound 3.16 µM", "result": 60.1, "unit": "nM"}, {"measurement": "IC50", "setting": "second compound 10 µM", "result": "< 9.49", "unit": "nM"}, {"measurement": "viability, T/C", "setting": "second compound 0.0316 µM, first compound 0.00949 µM", "result": 66.7, "unit": "%"}, {"measurement": "viability, T/C", "setting": "second compound 0.0316 µM, first compound 0.03 µM", "result": 64.8, "unit": "%"}, {"measurement": "viability, T/C", "setting": "second compound 0.0316 µM, first compound 0.0949 µM", "result": 55.7, "unit": "%"}, {"measurement": "viability, T/C", "setting": "second compound 0.0316 µM, first compound 0.3 µM", "result": 54.2, "unit": "%"}, {"measurement": "viability, T/C", "setting": "second compound 0.0316 µM, first compound 0.949 µM", "result": 45.7, "unit": "%"}, {"measurement": "viability, T/C", "setting": "second compound 0.0316 µM, first compound 3 µM", "result": 44.4, "unit": "%"}, {"measurement": "viability, T/C", "setting": "second compound 0.1 µM, first compound 0.00949 µM", "result": 84.3, "unit": "%"}, {"measurement": "viability, T/C", "setting": "second compound 0.1 µM, first compound 0.03 µM", "result": 68.9, "unit": "%"}, {"measurement": "viability, T/C", "setting": "second compound 0.1 µM, first compound 0.0949 µM", "result": 55.1, "unit": "%"}, {"measurement": "viability, T/C", "setting": "second compound 0.1 µM, first compound 0.3 µM", "result": 54.9, "unit": "%"}, {"measurement": "viability, T/C", "setting": "second compound 0.1 µM, first compound 0.949 µM", "result": 49.8, "unit": "%"}, {"measurement": "viability, T/C", "setting": "second compound 0.1 µM, first compound 3 µM", "result": 41.5, "unit": "%"}, {"measurement": "viability, T/C", "setting": "second compound 0.316 µM, first compound 0.00949 µM", "result": 71.5, "unit": "%"}, {"measurement": "viability, T/C", "setting": "second compound 0.316 µM, first compound 0.03 µM", "result": 62.2, "unit": "%"}, {"measurement": "viability, T/C", "setting": "second compound 0.316 µM, first compound 0.0949 µM", "result": 54.1, "unit": "%"}, {"measurement": "viability, T/C", "setting": "second compound 0.316 µM, first compound 0.3 µM", "result": 51.1, "unit": "%"}, {"measurement": "viability, T/C", "setting": "second compound 0.316 µM, first compound 0.949 µM", "result": 49.1, "unit": "%"}, {"measurement": "viability, T/C", "setting": "second compound 0.316 µM, first compound 3 µM", "result": 40.5, "unit": "%"}, {"measurement": "viability, T/C", "setting": "second compound 1 µM, first compound 0.00949 µM", "result": 72, "unit": "%"}, {"measurement": "viability, T/C", "setting": "second compound 1 µM, first compound 0.03 µM", "result": 70.1, "unit": "%"}, {"measurement": "viability, T/C", "setting": "second compound 1 µM, first compound 0.0949 µM", "result": 51.5, "unit": "%"}, {"measurement": "viability, T/C", "setting": "second compound 1 µM, first compound 0.3 µM", "result": 55.8, "unit": "%"}, {"measurement": "viability, T/C", "setting": "second compound 1 µM, first compound 0.949 µM", "result": 49.9, "unit": "%"}, {"measurement": "viability, T/C", "setting": "second compound 1 µM, first compound 3 µM", "result": 42.4, "unit": "%"}, {"measurement": "viability, T/C", "setting": "second compound 3.16 µM, first compound 0.00949 µM", "result": 56.8, "unit": "%"}, {"measurement": "viability, T/C", "setting": "second compound 3.16 µM, first compound 0.03 µM", "result": 56, "unit": "%"}, {"measurement": "viability, T/C", "setting": "second compound 3.16 µM, first compound 0.0949 µM", "result": 46.3, "unit": "%"}, {"measurement": "viability, T/C", "setting": "second compound 3.16 µM, first compound 0.3 µM", "result": 42.4, "unit": "%"}, {"measurement": "viability, T/C", "setting": "second compound 3.16 µM, first compound 0.949 µM", "result": 40.7, "unit": "%"}, {"measurement": "viability, T/C", "setting": "second compound 3.16 µM, first compound 3 µM", "result": 35.2, "unit": "%"}, {"measurement": "viability, T/C", "setting": "second compound 10 µM, first compound 0.00949 µM", "result": 46.1, "unit": "%"}, {"measurement": "viability, T/C", "setting": "second compound 10 µM, first compound 0.03 µM", "result": 38.5, "unit": "%"}, {"measurement": "viability, T/C", "setting": "second compound 10 µM, first compound 0.0949 µM", "result": 32.6, "unit": "%"}, {"measurement": "viability, T/C", "setting": "second compound 10 µM, first compound 0.3 µM", "result": 30.7, "unit": "%"}, {"measurement": "viability, T/C", "setting": "second compound 10 µM, first compound 0.949 µM", "result": 32.6, "unit": "%"}, {"measurement": "viability, T/C", "setting": "second compound 10 µM, first compound 3 µM", "result": 24.7, "unit": "%"}]}
